Assay results published in article PMC9530963, “A cathelicidin antimicrobial peptide from Hydrophis cyanocinctus inhibits Zika virus infection by downregulating expression of a viral entry factor” (The Journal of Biological Chemistry, 2022).

Experiments:
PGE2 = PGE2 production in A549 cells (ELISA); format: cell-based, Homo sapiens; settings: 24 h, cell supernatant
Protocol: Figure 6 Hc-CATH downregulates AXL via inhibiting COX-2/PGE2/AC/PKA pathway.A, effect of Hc-CATH on COX-2 protein level. A549 cells were incubated with Hc-CATH (1.25, 2.5, or 5 μM) or PBS (solvent of Hc-CATH) at 37 °C for 24 h, COX-2 protein level was examined by Western blot (upper panel) and analyzed by ImageJ (lower panel). B, effect of Hc-CATH on the enzymatic activity of COX-2. Hc-CATH (1.25, 2.5, 5, and 10 μM) or PBS was incubated with COX-2. After incubation at 37 °C for 10 min, the enzymatic activity of COX-2 was detected by enzyme activity inhibitor screening kit. Celecoxib (COX-2 inhibitor, 100 nM) was used as positive control. C, effect of Hc-CATH on PGE2 production. A549 cells were incubated with Hc-CATH (5 μM) at 37 °C. After incubation for 24 h, the level of PGE2 in the cell supernatant was detected by ELISA. D and E, effect of AC (D) and PKA (E) on Hc-CATH-induced AXL downregulation. A549 cells were incubated with forskolin (FSK, agonist of AC, 10 μM) or H89 (inhibitor of PKA, 5 μM) at 37 °C. After incubation for 1 h, the culture media were removed, cells were washed three times with PBS, and fresh culture media were added to cells in the presence of Hc-CATH (5 μM). After incubation for 24 h, AXL protein level was examined by Western blot (upper panel of D and E) and analyzed by ImageJ (lower panel of D and E). ns, not significant, ∗∗p < 0.01, and ∗∗∗p < 0.001. […]

AXL = AXL level in A549 cells (Western blot, immunofluorescence); format: cell-based, Homo sapiens; settings: 1.25, 2.5, and 5 μM, 24 h, with and without ZIKV challenge
Protocol: Figure 4 Hc-CATH downregulates AXL in A549 cell.A, schematic diagram of B and C. B, A549 cells were seeded in 24-well plates (5 × 10^4 cells/well) and cultured in DMEM containing 2% FBS. Hc-CATH (1.25, 2.5, and 5 μM) or same volume of PBS (peptide solvent) was added to cells and incubated at 37 °C for 24 h. The level of AXL was tested by Western blot. C, A549 cells were seeded in 8-well cover slip chambers (5 × 10^4 cells/well) and cultured in DMEM containing 2% FBS. Hc-CATH (1.25, 2.5, and 5 μM) or PBS was added to cells and incubated at 37 °C for 24 h. The level of AXL was tested by immunofluorescence staining. The scale bar represents 50 μm. D, schematic diagram of E and G. E and G, A549 cells were seeded in 24-well plates (5 × 10^4 cells/well) and cultured in DMEM containing 2% FBS. Hc-CATH (1.25, 2.5, and 5 μM) or PBS was added to cells and incubated at 37 °C for 2 h. Cells were washed with PBS and incubated with ZIKV (MOI = 1). After incubation at 37 °C for 2 h, cells were washed with PBS and cultured in DMEM containing 2% FBS.
The effect of Hc-CATH on AXL was further confirmed in A549 and U251 cells. A549 or U251 cells were incubated with Hc-CATH (1.25, 2.5, and 5 μM) or PBS at 37 °C for 24 h, and the level of AXL was detected by WB and IF, respectively. Upon ZIKV challenge, A549 or U251 cells were incubated with Hc-CATH (1.25, 2.5, and 5 μM) or PBS at 37 °C for 2 h. […]

ZIKV = assay: Prophylactic efficacy against ZIKV infection in mice; format: in vivo
Source text: At 4, 8, and 3 days post ZIKV inoculation, C57BL/6J mice, Ifnar1^−/− mice, and pregnant C57BL/6J mice were sacrificed, respectively. Tissues and fetal mice were collected for testing ZIKV RNA by qPCR. ns, not significant, ∗p < 0.05, ∗∗p < 0.01, and ∗∗∗p < 0.001. Hc-CATH, a cathelicidin antimicrobial peptide identified from the sea snake Hydrophis cyanocinctus; PFU, plaque-forming unit; qPCR, quantitative PCR; ZIKV, Zika virus.
C57BL/6J mice, Ifnar1^−/− mice, and pregnant C57BL/6J mice were sacrificed at 4, 8, and 3 days post ZIKV inoculation, respectively. Tissues and fetal mice were collected for testing ZIKV RNA level by qPCR.

type I IFN signaling = assay: Type I IFN signaling in U251 cells (qPCR, Western blot); format: cell-based, Homo sapiens
Protocol: Figure 7 Hc-CATH-induced AXL downregulation reverses the negative regulation of AXL on type I IFN signaling.A, schematic diagram of B and C. B, effect of Hc-CATH on type I IFN signaling. U251 cells were cultured in the presence of Hc-CATH (2.5 μM) or same volume of PBS (solvent of peptide). After culture at 37 °C for 24 h, type I IFN genes were tested by qPCR. C, effect of Hc-CATH on type I IFN signaling upon ZIKV challenge. U251 cells were cultured in the presence of Hc-CATH (2.5 μM) or PBS (solvent of peptide) at 37 °C for 2 h. Cells were washed with PBS and incubated with ZIKV (MOI = 1) at 37 °C for 2 h. Cell were washed with PBS again and cultured in DMEM containing 2% FBS at 37 °C for 24 h. Type I IFN genes were tested by qPCR. D, schematic diagram of E–G. E and F, U251 cells were cultured in the presence of Hc-CATH (2.5 μM) or PBS (solvent of peptide) at 37 °C for 12 h. Cells were stimulated with SeV (MOI = 1) at 37 °C for 12 h. Type I IFN gene was tested by qPCR (E). […] DMEM, Dulbecco’s modified Eagle’s medium; FBS, fetal bovine serum; IFN, interferon; MOI, multiplicity of infection; qPCR, quantitative PCR; SeV, Sendai virus; ZIKV, Zika virus.
U251 cells were cultured with Hc-CATH (2.5 μM) or PBS at 37 °C for 24 h, and cells were collected for testing type I IFN signaling gene and protein by qPCR and WB, respectively. Upon ZIKV challenge, U251 cells were incubated with Hc-CATH (2.5 μM) or PBS at 37 °C for 2 h and washed three times with PBS. Cells were then incubated with ZIKV (MOI = 1) for 2 h and washed with PBS. After culture for 24 h, type I IFN signaling genes were tested by qPCR. Upon SeV challenge, U251 cells were incubated with Hc-CATH (2.5 μM) or PBS at 37 °C for 12 h, cells were then stimulated with SeV or same volume of PBS for 12 h, and type I IFN signaling gene and protein were tested by qPCR and WB, respectively.

KFFKRLLKSVRRAVKKFRKKPRLIGLSTLL [Hc-CATH, cathelicidin antimicrobial peptide identified from the sea snake Hydrophis cyanocinctus]
synthesis of PGE2 (PGE2): significantly reduced the synthesis of PGE2 | level of AXL in A549 cells (AXL): effectively decreased the level of AXL | anti-ZIKV efficacy in vivo compared with positive peptides (ZIKV; C57BL/6J mice, prophylactic and therapeutic (Figs. 11E and 12E)): comparable with or even better than that of AC5 and LL-37 | ZIKV replication in C57BL/6J mice, prophylactic (ZIKV; i.v. peptide 2 h before i.v. ZIKV 10^6 PFU/mouse, 4 days, tissue ZIKV RNA, qPCR): significantly decreased ZIKV replication | ZIKV replication in Ifnar1−/− mice, prophylactic (ZIKV; i.v. peptide 2 h before i.v. ZIKV 10^6 PFU/mouse, 8 days, tissue ZIKV RNA, qPCR): significantly decreased ZIKV replication | ZIKV replication in fetal placenta and fetal mice, prophylactic (ZIKV; pregnant C57BL/6J mice, i.v. peptide 2 h before i.v. ZIKV 10^6 PFU/mouse, 3 days, qPCR): significantly decreased ZIKV replication | levels of type I IFN genes in response to ZIKV infection (type I IFN signaling; 2.5 μM 2 h, then ZIKV MOI = 1, 24 h, qPCR): upregulated the levels of type I IFN genes | IFN-β expression in response to SeV stimulation (type I IFN signaling; 2.5 μM 12 h, then SeV MOI = 1 12 h, qPCR, compared with PBS): significantly increased IFN-β expression | levels of type I IFN genes (type I IFN signaling; 2.5 μM, 24 h, qPCR): significantly increased the levels of type I IFN genes | phosphorylation of TANK-binding kinase 1 and IRF3 (type I IFN signaling; 2.5 μM, Western blot, relative to PBS): increased the phosphorylation of TANK-binding kinase 1 and IRF3
